Like-named read-outs stand apart in the source and are kept apart here.
Tests used:
hERG = target: T1, hERG (Homo sapiens, UniProt Q12809); assay: hERG automated patch clamp (CEREP); type: cell-based
T1 construct: host or cells: CHO (Chinese hamster ovary)
Description: Preliminary screening measures were conducted by CEREP. All values fall within acceptable limits (Table 5). Solubility assays where performed by CEREP, Seattle, Wash., according to Lipinski, C. A. et al., 1997, Adv. Drug Del. Rev., 46:3-26. Protein binding assays where performed by CEREP, Seattle, Wash., according to Banker, M. J. et al., 2003, J. Pharm. Sci., 92:967-974. Permeability assays where performed by CEREP, Seattle, Wash. according to Hildalgo, I. J., 1998, Gastroenterology, 96:736-749. Metabolic stability assays where performed by CEREP, Seattle, Wash., according to Obach, R. S. et al., 1997, J. Pharmacol. Exp. Ther., 283:46-58. P-glycoprotein inhibition assays where performed by CEREP, Seattle, Wash., according to Polli, J. W. et al., 2001, J. Pharm. Exp. Ther., 299:620-628. Cell viability assays where performed by CEREP, Seattle, Wash., according to Mosmann, T., 1983, J. Immunol. Met. 65:55-62. hERG automated patch clamp assays where performed by CEREP, Seattle, Wash., according to Mathes, C., 2006, Expert Opin. Ther. Targets, 10:230-241.

CYP2B6 = target: T2, CYP2B6 (Homo sapiens, UniProt P20813); assay: Cytochrome p450 inhibition (CEREP); type: in vitro ADME; settings: 10 μM
T2 construct: CEREP (contract laboratory)
Description: (§1) JB6121 was also tested for CYP inhibition, see Table 6 below. Assays where performed by CEREP, Seattle, Wash., according to Atkinson, A et al., 2005, Drug Metab. Dispos. 33:1637-1647.

CYP2C19 = target: T3, CYP2C19 (Homo sapiens, UniProt P33261); assay: Cytochrome p450 inhibition (CEREP); type: in vitro ADME; settings: 10 μM
T3 construct: CEREP (contract laboratory)
Description: as §1

CYP2C9 = target: T4, CYP2C9 (Homo sapiens, UniProt P11712); assay: Cytochrome p450 inhibition (CEREP); type: in vitro ADME; settings: 10 μM
T4 construct: CEREP (contract laboratory)
Description: as §1

CYP2D6 = target: T5, CYP2D6 (Homo sapiens, UniProt P10635); assay: Cytochrome p450 inhibition (CEREP); type: in vitro ADME; settings: 10 μM
T5 construct: CEREP (contract laboratory)
Description: as §1

TLR9 = target: T6, TLR9 (Rattus norvegicus, UniProt Q6Y1S0); assay: PK/PD study: serum cytokines after ODN CpG 1668 challenge; type: in vivo, Sprague-Dawley rats
T6 construct: endogenous in cells; host or cells: live Sprague-Dawley rats
T6 sequence (Q6Y1S0 24-1032): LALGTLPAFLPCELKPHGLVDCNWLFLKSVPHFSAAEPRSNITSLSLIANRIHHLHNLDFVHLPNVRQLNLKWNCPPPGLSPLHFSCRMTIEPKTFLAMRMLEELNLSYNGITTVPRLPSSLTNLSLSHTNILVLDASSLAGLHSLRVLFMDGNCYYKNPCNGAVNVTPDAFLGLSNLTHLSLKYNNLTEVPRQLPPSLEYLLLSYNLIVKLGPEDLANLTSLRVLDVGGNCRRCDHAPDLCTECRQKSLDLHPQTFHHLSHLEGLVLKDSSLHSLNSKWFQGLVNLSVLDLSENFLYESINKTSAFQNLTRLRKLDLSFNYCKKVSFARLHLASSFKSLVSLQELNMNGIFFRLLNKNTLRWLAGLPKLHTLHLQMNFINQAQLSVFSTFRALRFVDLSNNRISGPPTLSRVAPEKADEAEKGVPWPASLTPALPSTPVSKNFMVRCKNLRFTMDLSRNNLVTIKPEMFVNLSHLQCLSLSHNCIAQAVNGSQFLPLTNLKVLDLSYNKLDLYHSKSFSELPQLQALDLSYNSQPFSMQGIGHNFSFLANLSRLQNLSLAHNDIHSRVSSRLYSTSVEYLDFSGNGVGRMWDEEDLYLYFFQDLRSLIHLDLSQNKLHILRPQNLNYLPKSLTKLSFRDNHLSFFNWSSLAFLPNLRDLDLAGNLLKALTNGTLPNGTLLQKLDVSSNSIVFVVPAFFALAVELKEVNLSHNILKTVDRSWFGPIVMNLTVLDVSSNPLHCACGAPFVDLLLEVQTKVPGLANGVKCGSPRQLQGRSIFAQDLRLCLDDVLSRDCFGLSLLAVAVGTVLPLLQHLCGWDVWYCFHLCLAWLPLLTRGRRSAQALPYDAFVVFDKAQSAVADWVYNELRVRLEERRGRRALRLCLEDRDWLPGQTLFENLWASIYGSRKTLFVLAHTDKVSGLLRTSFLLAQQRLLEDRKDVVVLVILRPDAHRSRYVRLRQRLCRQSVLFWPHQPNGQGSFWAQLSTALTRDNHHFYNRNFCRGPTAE
Description: The objective of this study was to collect serum following ODN CpG 1668 administration and to determine the pharmacokinetics of JB6121 following oral administration to Sprague-Dawley rats for 7 days. There was a pre-test to establish the appropriate agonist dose for a TLR9 ligand, CpG DNA ODN 1668, in rats using serum IL-12 as the monitored cytokine, groups 1-3, see table 6. Whole blood samples for serum were collected terminally from each animal 3 hours following dosing with ODN CpG 1668. Serum IL-12 was determined by ELISA, data not shown. An agonist dose of lmg/kg was selected for the next phase of the study. For groups administered JB6121 (Groups 4-7), formulations were corrected for base/salt components and not corrected for purity. On the initial day of dose administration, JB6121 formulations were prepared using sterile PBS to the adjusted target dosing concentrations using a factor of 0.8265 to correct for salt content. Dosing was performed as outlined in the following Table 9.
Animals were assigned to four groups (groups 4-7) and administered JB6121 at 0.39, 1.56, 6.25, or 25 mg/kg in a volume of […] once per day by oral gavage for 7 days. On Day 7, two hours following the JB6121 dose (approximate Cmax), ODN CpG 1668 was administered as a single IP dose at 1 mg/kg in a volume of 1 mL/kg. Whole blood samples for bioanalysis and serum samples for serum cytokine analysis were collected by tail vein bleeding or terminally by cardiac puncture at t=2, 3, 4 and 5 h.
Serum IL-12 was monitored at three hours post agonist challenge as a measure of pharmacodynamic JB6121 activity, see FIG. 4. The apparent ID50 post 7-day exposure is approximately 11 ng*h/ml AUC or roughly 0.5 mg/kg dose. […] This would lead to a fourfold greater, 0.5 mg/kg versus 2.4 mg/kg, expected activity in the 7-day rat versus the 1-day mouse. […] We also used multiplex analysis to measure additional cytokines and chemokines in the serum samples. The measurements delivered results for MIP-1a, MIP-2, MCP-1 and IP-10.

T4 sequence (P11712 whole entry): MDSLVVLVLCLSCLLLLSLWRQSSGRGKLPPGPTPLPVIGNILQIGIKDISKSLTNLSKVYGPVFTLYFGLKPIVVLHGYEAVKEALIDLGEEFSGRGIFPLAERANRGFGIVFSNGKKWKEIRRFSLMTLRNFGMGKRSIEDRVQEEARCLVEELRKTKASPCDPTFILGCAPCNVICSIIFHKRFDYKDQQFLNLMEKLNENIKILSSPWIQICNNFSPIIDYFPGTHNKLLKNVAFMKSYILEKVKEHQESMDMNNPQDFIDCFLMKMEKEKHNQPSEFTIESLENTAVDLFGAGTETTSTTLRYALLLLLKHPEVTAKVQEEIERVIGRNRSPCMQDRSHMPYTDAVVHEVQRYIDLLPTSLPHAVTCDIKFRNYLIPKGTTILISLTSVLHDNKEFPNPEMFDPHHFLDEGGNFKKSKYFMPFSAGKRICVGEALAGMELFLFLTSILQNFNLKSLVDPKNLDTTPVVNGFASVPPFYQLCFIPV
T5 sequence (P10635 whole entry): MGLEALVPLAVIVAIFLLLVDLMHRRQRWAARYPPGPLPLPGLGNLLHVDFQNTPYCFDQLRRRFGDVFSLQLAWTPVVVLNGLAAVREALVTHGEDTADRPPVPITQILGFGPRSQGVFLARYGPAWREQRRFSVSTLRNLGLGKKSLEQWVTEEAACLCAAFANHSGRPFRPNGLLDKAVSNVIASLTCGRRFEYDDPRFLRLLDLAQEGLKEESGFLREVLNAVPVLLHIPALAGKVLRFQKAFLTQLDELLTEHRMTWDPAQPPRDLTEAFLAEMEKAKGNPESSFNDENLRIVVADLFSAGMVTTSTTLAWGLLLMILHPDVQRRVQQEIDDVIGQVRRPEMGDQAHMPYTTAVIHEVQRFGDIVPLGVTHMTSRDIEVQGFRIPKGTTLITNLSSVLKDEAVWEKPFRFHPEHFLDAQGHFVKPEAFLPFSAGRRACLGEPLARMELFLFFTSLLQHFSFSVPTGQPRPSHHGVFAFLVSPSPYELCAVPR
T3 sequence (P33261 whole entry): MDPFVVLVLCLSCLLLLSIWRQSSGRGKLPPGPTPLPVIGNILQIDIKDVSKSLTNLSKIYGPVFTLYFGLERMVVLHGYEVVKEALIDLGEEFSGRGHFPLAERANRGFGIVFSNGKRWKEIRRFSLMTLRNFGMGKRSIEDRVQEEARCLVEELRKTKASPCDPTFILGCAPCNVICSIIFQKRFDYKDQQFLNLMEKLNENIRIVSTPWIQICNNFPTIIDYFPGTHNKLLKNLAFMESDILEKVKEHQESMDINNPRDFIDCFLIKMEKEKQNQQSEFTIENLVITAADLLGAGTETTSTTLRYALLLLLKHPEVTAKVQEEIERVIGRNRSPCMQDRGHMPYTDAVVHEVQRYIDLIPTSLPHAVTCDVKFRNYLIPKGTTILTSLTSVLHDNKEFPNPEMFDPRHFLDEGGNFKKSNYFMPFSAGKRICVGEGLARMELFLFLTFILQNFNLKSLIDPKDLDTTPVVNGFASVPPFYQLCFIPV
T2 sequence (P20813 whole entry): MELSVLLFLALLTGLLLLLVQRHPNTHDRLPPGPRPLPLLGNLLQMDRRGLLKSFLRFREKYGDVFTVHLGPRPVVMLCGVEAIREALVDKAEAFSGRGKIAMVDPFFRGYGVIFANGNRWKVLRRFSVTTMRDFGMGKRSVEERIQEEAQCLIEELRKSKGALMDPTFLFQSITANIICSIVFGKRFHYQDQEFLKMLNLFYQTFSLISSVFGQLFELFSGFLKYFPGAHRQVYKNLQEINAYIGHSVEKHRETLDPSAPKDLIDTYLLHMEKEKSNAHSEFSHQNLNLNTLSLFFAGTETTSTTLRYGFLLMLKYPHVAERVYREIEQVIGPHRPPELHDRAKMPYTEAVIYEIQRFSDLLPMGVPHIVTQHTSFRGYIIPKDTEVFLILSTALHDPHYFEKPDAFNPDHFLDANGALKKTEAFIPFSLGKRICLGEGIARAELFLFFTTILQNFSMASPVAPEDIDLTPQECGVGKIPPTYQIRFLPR
T1 sequence (Q12809 whole entry): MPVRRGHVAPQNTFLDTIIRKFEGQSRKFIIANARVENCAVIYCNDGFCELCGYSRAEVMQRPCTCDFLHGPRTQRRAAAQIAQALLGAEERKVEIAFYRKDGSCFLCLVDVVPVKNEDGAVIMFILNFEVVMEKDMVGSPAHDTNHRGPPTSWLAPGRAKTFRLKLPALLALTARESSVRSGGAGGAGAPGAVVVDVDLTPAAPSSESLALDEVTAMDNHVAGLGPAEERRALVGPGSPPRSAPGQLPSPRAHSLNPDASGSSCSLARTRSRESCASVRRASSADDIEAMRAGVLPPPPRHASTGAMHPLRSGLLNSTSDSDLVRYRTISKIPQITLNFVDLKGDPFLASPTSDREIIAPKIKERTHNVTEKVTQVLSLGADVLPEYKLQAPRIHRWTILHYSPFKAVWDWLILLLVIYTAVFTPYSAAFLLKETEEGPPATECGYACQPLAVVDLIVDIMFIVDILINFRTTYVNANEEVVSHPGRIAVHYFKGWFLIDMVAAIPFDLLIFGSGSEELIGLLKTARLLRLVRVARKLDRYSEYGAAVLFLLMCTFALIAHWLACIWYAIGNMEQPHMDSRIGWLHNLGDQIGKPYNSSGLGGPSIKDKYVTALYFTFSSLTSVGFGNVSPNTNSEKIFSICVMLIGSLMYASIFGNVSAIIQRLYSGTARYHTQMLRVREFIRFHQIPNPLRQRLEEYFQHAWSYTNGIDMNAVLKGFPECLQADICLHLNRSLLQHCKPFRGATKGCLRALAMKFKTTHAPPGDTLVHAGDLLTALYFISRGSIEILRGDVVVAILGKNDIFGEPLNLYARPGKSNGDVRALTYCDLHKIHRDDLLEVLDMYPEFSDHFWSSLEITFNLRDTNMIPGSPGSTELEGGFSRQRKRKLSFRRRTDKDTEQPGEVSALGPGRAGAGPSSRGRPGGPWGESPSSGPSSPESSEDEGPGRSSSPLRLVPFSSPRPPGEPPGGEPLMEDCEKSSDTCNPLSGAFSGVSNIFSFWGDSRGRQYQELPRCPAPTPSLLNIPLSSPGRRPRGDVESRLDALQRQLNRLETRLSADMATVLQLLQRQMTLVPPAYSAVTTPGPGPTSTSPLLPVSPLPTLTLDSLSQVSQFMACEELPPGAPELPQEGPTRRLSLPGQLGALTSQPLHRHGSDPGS

Compound: CN1CCN(c2nc(NCCN3CCOCC3)c3nc(Cl)c(NCCN4CCOCC4)nc3n2)CC1 [JB6121, 6-chloro-2-(4-methylpiperazin-1-yl)-N^4,N^7-bis(2-morpholinoethyl)pteridine-4,7-diamine]
- inhibition at 10 µM (hERG): 11%
- CYP2B6 Mean % Control (CYP2B6): 58.2%
- CYP2C19 Mean % Control (CYP2C19): 92.9%
- CYP2C9 Mean % Control (CYP2C9): 46.7%
- CYP2D6 Mean % Control (CYP2D6): 80.9%
- ED50 (TLR9; rat, po, serum IL-12, 3 h post agonist challenge, read-out: apparent ID50 post 7-day exposure, as dose): ~0.5 mg/kg
- inhibition at 1.56 mg/kg (TLR9; rat, 1.56 mg/kg dose, PO daily x7 days): > 80%
- ED50 (TLR9; rat, serum IP-10, read-out: ID50, IP-10 (multiplex analysis)): ~2.8 mg/kg
- apparent ID50 post 7-day exposure, as AUC (TLR9; serum IL-12, 3 h post agonist challenge): approximately 11 ng*h/ml

— patent US20170275287A1, “NOVEL N2, N4, N7, 6-TETRASUBSTITUTED PTERIDINE-2,4,7-TRIAMINE AND 2, 4, 6, 7-TETRASUBSTITUTED PTERIDINE COMPOUNDS AND METHODS OF SYNTHESIS AND USE THEREOF” (Janus Biotherapeutics, Inc., priority 2014, published 2017)
